Literature values in US20150267258A1, “BIOMARKERS FOR DETERMINING EFFECTIVE RESPONSE OF TREATMENTS OF HEPATOCELLULAR CARCINOMA (HCC) PATIENTS” (BAYER PHARMA AKTIENGESELLSCHAFT, priority 2012, published 2015).

Columns and labels:
[1] = test system: metastatic colorectal cancer; conditions: patients with metastatic colorectal cancer

For `CNC(=O)c1cc(Oc2ccc(NC(=O)Nc3ccc(Cl)c(C(F)(F)F)c3)cc2)ccn1` [Sorafenib, 4-[4-[[4-chloro-3-(trifluoromethyl)phenyl]carbamoylamino]phenoxy]-N-methyl-pyridine-2-carboxamide], the “Effectiveness in lung cancer” value (lung cancer) is listed as “effective in lung cancer”.

For `CNC(=O)c1cc(Oc2ccc(NC(=O)Nc3ccc(Cl)c(C(F)(F)F)c3)c(F)c2)ccn1` [Regorafenib, 4-[4-({[4-Chloro-3-(trifluoromethyl)phenyl]carbamoyl}amino)-3-fluorophenoxy]-N-methylpyridine-2-carboxamide], the Overall survival [1] is listed as “increase the overall survival”.
